Experimental data taken from US11944616B2 (INSTITUT NATIONAL DE LA SANTE ET DE LA RECHERCHE MEDICAL …, priority 2016, dated 2024).
Like-named read-outs stand apart in the source and are kept apart here.

What was measured:
NMDAR = NMDAR blocking activity using patch-clamp (whole-cell voltage clamp recordings from rat hippocampal neurons); type: cell-based; conditions: currents evoked by 100 μM NMDA and 20 μM D-serine, clamped at −60 mV
[1] = In vivo brain penetration measurement (brain/plasma ratio Kp"brain") in rat; conditions: for Kp at 3.45 h: brain (without cerebellum) and plasma, male Sprague-Dawley rat, 3.45 h constant-rate intravenous infusion, 4 mg/kg, mean of 3 rats ± standard deviation, read-out: Kp"brain" (total brain/plasma concentration ratio at steady state); for CNS / BBB penetration (in words): rat, conclusion from Kp"brain" values
Experimental: The femoral vein of male Sprague-Dawley rats (CRL) weighing around 250 g was surgically catheterized at least 72 hours prior to the experiment. 3 animals were performed for each compound tested. The drug was administered as 3.45 h constant-rate intravenous infusion to approach steady state, using a flow rate of 0.8 mL/h, corresponding to dosage of 4 mg/kg (1.067 mg/kg/h, i.e. 1 mg/rat of ˜250 g). The vehicle used was saline.
At the end of the infusion, the rats were anesthetized by inhalation of isoflurane, and blood was collected in a heparinized tube from the abdominal aorta, followed by immediate rinsing of the bloodstream for 2 minutes with saline at a rate of 15 mL/min using a peristaltic pump and left intraventricle cannula (flowing via right atrium). The brain (without cerebellum) was removed, and transferred in a tube and homogenized in two volumes of deionized water using a tissue homogenizer (Precellys24). All samples were stored at −20° C. until analysis. Plasma and brain homogenate sample preparation was performed using solid phase extraction on OASIS® WCX (Waters) and compounds were quantified by reversed phase liquid chromatography and positive electrospray ionization and multiple reaction monitoring mass spectrometry (LC-MS/MS).
This parameter is defined as the ratio of concentrations in brain and blood, Kp“brain” (Cbrain/Cplasma) or log(BB). Log(BB) is the logarithm of the ratio of the steady-state total concentration of a compound in the brain to that in the blood/plasma, log(BB)=log(Cbrain/Cplasma). This parameter depends upon the passive diffusion characteristics, the implication of membrane transporters at the BBB level and the relative drug binding affinity differences between the plasma proteins and brain tissue.

| melting point | Structure (SMILES) | other results |
| --- | --- | --- |
| 215 to 217 °C | CC(C)CC[N@+]1(C)[C@H]2Cc3ccccc3[C@]1(C)c1ccccc12 |  |
| 214 to 217 °C | CCC[N@+]1(C)[C@H]2Cc3ccccc3[C@]1(C)c1ccccc12 |  |
| 200 to 203 °C | CCCCCC[N@+]1(C)[C@H]2Cc3ccccc3[C@]1(C)c1ccccc12 |  |
| 181 to 184 °C | CCC(C)C[N@+]1(C)[C@H]2Cc3ccccc3[C@]1(C)c1ccccc12 (stereo partly shown) |  |
| 237 to 238 °C | CC[N+]1(CC)[C@H]2Cc3ccccc3[C@]1(C)c1ccccc12 |  |
| 220 to 222 °C | C[C@@]12c3ccccc3C[C@@H](c3ccccc31)[N@@+]2(C)CC1CCCCC1 |  |
| 220 to 222 °C | C[C@@]12c3ccccc3C[C@@H](c3ccccc31)[N@@+]2(C)Cc1ccccc1 |  |
| 159 to 162 °C | C[C@@]12c3ccccc3C[C@@H](c3ccccc31)[N@@+]2(C)CC1CCC1 |  |
| 216 to 219 °C | C[C@@]12c3ccccc3C[C@@H](c3ccccc31)[N@@+]2(C)CCO |  |
| 147 to 149 °C | C[C@@]12c3ccccc3C[C@@H](c3ccccc31)[N@@+]2(C)CC#N |  |
| 216 to 218 °C | CC(=O)NCC[N@+]1(C)[C@H]2Cc3ccccc3[C@]1(C)c1ccccc12 |  |
| 218 to 219 °C | CC[N+]1(CC)[C@@H]2Cc3ccccc3[C@@]1(C)c1ccccc12 |  |
| 201 to 202 °C | C#CC[N@@+]1(CCO)[C@@H]2Cc3ccccc3[C@@]1(C)c1ccccc12 |  |
| 162 to 163 °C | COCC[N@+]1(C)[C@@H]2Cc3ccccc3[C@@]1(C)c1ccccc12 |  |
| 189 to 192 °C | C[C@@]12c3ccccc3C[C@@H](c3ccccc31)[N@@+]2(C)CC(N)=O |  |

More lines, now with the values behind:

| Structure (SMILES) | melting point | other results |
| --- | --- | --- |
| C[C@@]12c3ccccc3C[C@@H](c3ccccc31)[N@@+]2(C)CC1(c2ccccc2)CC1 | 174 to 176 °C |  |
| Cc1ccc(C[N@+]2(C)[C@H]3Cc4ccccc4[C@]2(C)c2ccccc23)cc1 | 134 to 136 °C |  |
| CC(C)(C)c1ccc(C[N@+]2(C)[C@H]3Cc4ccccc4[C@]2(C)c2ccccc23)cc1 | 152 to 154 °C |  |
| COc1ccc(C[N@+]2(C)[C@H]3Cc4ccccc4[C@]2(C)c2ccccc23)cc1 | 101 to 103 °C |  |
| C[C@@]12c3ccccc3C[C@@H](c3ccccc31)[N@@+]2(C)Cc1ccc(Cl)cc1 | 160 to 162 °C |  |
| C[C@@]12c3ccccc3C[C@@H](c3ccccc31)[N@@+]2(C)Cc1ccccc1Cl | 129 to 131 °C |  |
| Cc1ccccc1C[N@+]1(C)[C@H]2Cc3ccccc3[C@]1(C)c1ccccc12 | 101 to 103 °C |  |
| C[C@@]12c3ccccc3C[C@@H](c3ccccc31)[N@@+]2(C)CC1(c2ccc(Cl)cc2)CC1 | 162 to 164 °C |  |
| CC[N@@+]1(CC2CC2)[C@@H]2Cc3ccccc3[C@@]1(C)c1ccccc12 | 180 to 181 °C |  |
| CCC[N@@+]1(CC2CC2)[C@@H]2Cc3ccccc3[C@@]1(C)c1ccccc12 | 203 to 204 °C |  |
| CCCC[N@@+]1(CC2CC2)[C@@H]2Cc3ccccc3[C@@]1(C)c1ccccc12 | 171 to 172 °C |  |
| CCC[N@@+]1(CCO)[C@@H]2Cc3ccccc3[C@@]1(C)c1ccccc12 | 221 to 222 °C |  |
| CCCC[N@@+]1(CCO)[C@@H]2Cc3ccccc3[C@@]1(C)c1ccccc12 | 196 to 197 °C |  |
| CC[N@@+]1(CCCCO)[C@@H]2Cc3ccccc3[C@@]1(C)c1ccccc12 | 201 to 202 °C |  |
| C[C@]12c3ccccc3C[C@H](c3ccccc31)[N@@+]2(CCO)CC1CC1 | 179 to 180 °C |  |
| C#CC[N@@+]1(CC2CC2)[C@@H]2Cc3ccccc3[C@@]1(C)c1ccccc12 | 168 to 169 °C |  |
| C=CC[N@@+]1(CC2CC2)[C@@H]2Cc3ccccc3[C@@]1(C)c1ccccc12 | 131 to 132 °C |  |
| C=CC[N@@+]1(CCO)[C@@H]2Cc3ccccc3[C@@]1(C)c1ccccc12 | 196 to 197 °C |  |
| C[C@@]12c3ccccc3C[C@@H](c3ccccc31)[N@@+]2(C)Cc1ccc(F)cc1 | 92 to 94 °C |  |
| C[C@@]12c3ccccc3C[C@@H](c3ccccc31)[N@@+]2(C)Cc1cccc(C(F)(F)F)c1 | 167 to 170 °C |  |
| CC[N@@+]1(CCO)[C@H]2Cc3ccccc3[C@]1(C)c1ccccc12 (racemic) [Compound No 27] | 205 to 208 °C | IC50 (NMDAR; read-out: IC50): 360 nM |
| C[C@@]12c3ccccc3C[C@@H](c3ccccc31)[N+]2(C)C [Compound No 1] | 270 to 280 °C | IC50 (NMDAR; read-out: IC50): 650 nM; Kp at 3.45 h [1]: 0.3 ± 0.03; CNS / BBB penetration (in words) [1]: do not penetrate the CNS |
| CC[N@+]1(C)[C@H]2Cc3ccccc3[C@]1(C)c1ccccc12 [Compound No 2] | 230 to 232 °C | IC50 (NMDAR): 570 nM |
| CCCC[N@+]1(C)[C@H]2Cc3ccccc3[C@]1(C)c1ccccc12 [Compound No 3] | 200 to 203 °C | IC50 (NMDAR): 500 nM |
| CC(C)C[N@+]1(C)[C@H]2Cc3ccccc3[C@]1(C)c1ccccc12 [Compound No 4] | 216 to 217 °C | IC50 (NMDAR): 820 nM |
| C[C@@]12c3ccccc3C[C@@H](c3ccccc31)[N@@+]2(C)CC1CC1 [Compound No 5] | 103 to 105 °C | IC50 (NMDAR): 400 nM |
| C[C@@]12c3ccccc3C[C@@H](c3ccccc31)[N@@+]2(C)CC1CCCC1 [Compound No 6] | 125 to 127 °C | IC50 (NMDAR): 1100 nM |
| CC[N@@+]1(CCO)[C@H]2Cc3ccccc3[C@]1(C)c1ccccc12 [Compound No 26] | 202 to 205 °C | IC50 (NMDAR; read-out: IC50): 400 nM; Kp at 3.45 h [1]: 0.4 ± 0.08; CNS / BBB penetration (in words) [1]: do not penetrate the CNS |
| CC[N@@+]1(CC2CC2)[C@H]2Cc3ccccc3[C@]1(C)c1ccccc12 [Compound No 31] | 189 to 191 °C | IC50 (NMDAR; read-out: IC50): 270 nM |
| CC[N@@+]1(CCO)[C@H]2Cc3ccccc3[C@]1(C)c1ccccc12 [Compound No 32] | 115 to 120 °C |  |
